Results from paper PMC4450297, “Screening Active Compounds from Garcinia Species Native to China Reveals Novel Compounds Targeting the STAT/JAK Signaling Pathway” (BioMed Research International, 2015).

How the values were obtained:
Assay in all cases: Cell panel screen (CellTiter-Glo)
Format in all cases: cell-based, human
C3A = C3A (Liver), 20 micromolar, 72 hrs
Method in brief: (§1)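 Tested once at 20 μM (final) over 72 h in cells cultured with 10% FBS. Luciferase/ATP luminescence read-out, background-corrected and normalised to vehicle controls.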

A498 = A498 (listed under Lung), 20 micromolar, 72 hrs
Method in brief: as §1

NCI-H2405 = NCI-H2405 (Lung), 20 micromolar, 72 hrs
Method in brief: as §1

BT-474 = BT-474 (Breast), 20 micromolar, 72 hrs
Method in brief: as §1

J82 = J82 (Urinary bladder), 20 micromolar, 72 hrs
Method in brief: as §1

CCF-STTG1 = CCF-STTG1 (Brain), 20 micromolar, 72 hrs
Method in brief: as §1

A704 = A704 (Kidney), 20 micromolar, 72 hrs
Method in brief: as §1

MSTO-211-H = MSTO-211-H (Lung), 20 micromolar, 72 hrs
Method in brief: as §1

HEC-1-A = HEC-1-A (Uterus), 20 micromolar, 72 hrs
Method in brief: as §1

M059J = M059J (Brain), 20 micromolar, 72 hrs
Method in brief: as §1

Panc 03.27 = Panc 03.27 (Pancreas), 20 micromolar, 72 hrs
Method in brief: as §1

T98G = T98G (Brain), 20 micromolar, 72 hrs
Method in brief: as §1

HCC1937 = HCC1937 (Breast), 20 micromolar, 72 hrs
Method in brief: as §1

TCCSUP = TCCSUP (Urinary bladder), 20 micromolar, 72 hrs
Method in brief: as §1

HCC1599 = HCC1599 (Breast), 20 micromolar, 72 hrs
Method in brief: as §1

HPAF-II = HPAF-II (Pancreas), 20 micromolar, 72 hrs
Method in brief: as §1

C8166 = C8166 (Leukemia), 20 micromolar, 72 hrs
Method in brief: as §1

ChaGo-K-1 = ChaGo-K-1 (Lung), 20 micromolar, 72 hrs
Method in brief: as §1

NCI-H28 = NCI-H28 (Lung), 20 micromolar, 72 hrs
Method in brief: as §1

RL95 = RL95 (Uterus), 20 micromolar, 72 hrs
Method in brief: as §1

T47D = T47D (Breast), 20 micromolar, 72 hrs
Method in brief: as §1

ZR-75-30 = ZR-75-30 (Breast), 20 micromolar, 72 hrs
Method in brief: as §1

Bel-7402 = Bel-7402 (Liver), 20 micromolar, 72 hrs
Method in brief: as §1

NCI-H2347 = NCI-H2347 (Lung), 20 micromolar, 72 hrs
Method in brief: as §1

HCC1395 = HCC1395 (Breast), 20 micromolar, 72 hrs
Method in brief: as §1

NCI-H1694 = NCI-H1694 (Lung), 20 micromolar, 72 hrs
Method in brief: as §1

HGC-27 = HGC-27 (Stomach), 20 micromolar, 72 hrs
Method in brief: as §1

NCI-H1623 = NCI-H1623 (Lung), 20 micromolar, 72 hrs
Method in brief: as §1

HT-1197 = HT-1197 (Urinary bladder), 20 micromolar, 72 hrs
Method in brief: as §1

BT-549 = BT-549 (Breast), 20 micromolar, 72 hrs
Method in brief: as §1

HCC1569 = HCC1569 (Breast), 20 micromolar, 72 hrs
Method in brief: as §1

NCI-H524 = NCI-H524 (Lung), 20 micromolar, 72 hrs
Method in brief: as §1

Colo 205 = conditions: Colo 205, 20 micromolar, 72 hrs
Method in brief: as §1

SW13 = SW13 (Adrenal gland), 20 micromolar, 72 hrs
Method in brief: as §1

CW-2 = CW-2 (Colon), 20 micromolar, 72 hrs
Method in brief: as §1

NCI-H1770 = NCI-H1770 (Lung), 20 micromolar, 72 hrs
Method in brief: as §1

CC1(C)C=Cc2c(cc(O)c3c(=O)c4cc5c(c(O)c4oc23)OC(C)(C)C=C5)O1 [Go-16]
Percent Inhibition (C3A): 22%
Percent Inhibition (A498): 12%
Percent Inhibition (NCI-H2405): 27%
Percent Inhibition (BT-474): -6%
Percent Inhibition (J82): 23%
Percent Inhibition (CCF-STTG1): 22%
Percent Inhibition (A704): 17%
Percent Inhibition (MSTO-211-H): 34%
Percent Inhibition (HEC-1-A): 11%
Percent Inhibition (M059J): 31%
Percent Inhibition (Panc 03.27): 20%
Percent Inhibition (T98G): 29%
Percent Inhibition (HCC1937): 25%
Percent Inhibition (TCCSUP): 44%
Percent Inhibition (HCC1599): 41%
Percent Inhibition (HPAF-II): 15%
Percent Inhibition (C8166): 13%
Percent Inhibition (ChaGo-K-1): 9%
Percent Inhibition (NCI-H28): 9%
Percent Inhibition (RL95): -8%
Percent Inhibition (T47D): 20%
Percent Inhibition (ZR-75-30): 47%
Percent Inhibition (Bel-7402): 15%
Percent Inhibition (NCI-H2347): -8%
Percent Inhibition (HCC1395): 68%
Percent Inhibition (NCI-H1694): 5%
Percent Inhibition (HGC-27): 28%
Percent Inhibition (NCI-H1623): 33%
Percent Inhibition (HT-1197): 35%
Percent Inhibition (BT-549): -5%
Percent Inhibition (HCC1569): 11%
Percent Inhibition (NCI-H524): -35%
Percent Inhibition (Colo 205): 4%
Percent Inhibition (SW13): 6%
Percent Inhibition (CW-2): 17%
Percent Inhibition (NCI-H1770): 25%

O=c1c2cc(O)c(O)cc2oc2cc(O)cc(O)c12 [Ge-17]
Percent Inhibition (C3A): 33%
Percent Inhibition (A498): 41%
Percent Inhibition (NCI-H2405): -5%
Percent Inhibition (BT-474): -7%
Percent Inhibition (J82): 47%
Percent Inhibition (CCF-STTG1): 15%
Percent Inhibition (A704): 1%
Percent Inhibition (MSTO-211-H): 74%
Percent Inhibition (HEC-1-A): 51%
Percent Inhibition (M059J): 63%
Percent Inhibition (Panc 03.27): 20%
Percent Inhibition (T98G): 54%
Percent Inhibition (HCC1937): 65%
Percent Inhibition (TCCSUP): 61%
Percent Inhibition (HCC1599): 79%
Percent Inhibition (HPAF-II): 13%
Percent Inhibition (C8166): 62%
Percent Inhibition (ChaGo-K-1): 22%
Percent Inhibition (NCI-H28): 9%
Percent Inhibition (RL95): 53%
Percent Inhibition (T47D): 48%
Percent Inhibition (ZR-75-30): 6%
Percent Inhibition (Bel-7402): 7%
Percent Inhibition (NCI-H2347): 4%
Percent Inhibition (HCC1395): 38%
Percent Inhibition (NCI-H1694): 99%
Percent Inhibition (HGC-27): 55%
Percent Inhibition (NCI-H1623): 2%
Percent Inhibition (HT-1197): 16%
Percent Inhibition (BT-549): 40%
Percent Inhibition (HCC1569): 16%
Percent Inhibition (NCI-H524): 47%
Percent Inhibition (Colo 205): 3%
Percent Inhibition (SW13): 8%
Percent Inhibition (CW-2): 25%
Percent Inhibition (NCI-H1770): 72%

CC(C)=CCC/C(C)=C/Cc1c(O)c(CC=C(C)C)c2c(c1O)C(=O)C1=C[C@@H]3C[C@H]4C(C)(C)O[C@@](C/C=C(/C)C(=O)O)(C3=O)[C@@]14O2 [GB16]
Percent Inhibition (C3A): 99%
Percent Inhibition (A498): 100%
Percent Inhibition (NCI-H2405): 99%
Percent Inhibition (BT-474): 99%
Percent Inhibition (J82): 99%
Percent Inhibition (CCF-STTG1): 99%
Percent Inhibition (A704): 99%
Percent Inhibition (MSTO-211-H): 100%
Percent Inhibition (HEC-1-A): 99%
Percent Inhibition (M059J): 99%
Percent Inhibition (Panc 03.27): 99%
Percent Inhibition (T98G): 99%
Percent Inhibition (HCC1937): 100%
Percent Inhibition (TCCSUP): 100%
Percent Inhibition (HCC1599): 100%
Percent Inhibition (HPAF-II): 98%
Percent Inhibition (C8166): 100%
Percent Inhibition (ChaGo-K-1): 99%
Percent Inhibition (NCI-H28): 99%
Percent Inhibition (RL95): 99%
Percent Inhibition (T47D): 99%
Percent Inhibition (ZR-75-30): 100%
Percent Inhibition (Bel-7402): 99%
Percent Inhibition (NCI-H2347): 98%
Percent Inhibition (HCC1395): 99%
Percent Inhibition (NCI-H1694): 100%
Percent Inhibition (HGC-27): 100%
Percent Inhibition (NCI-H1623): 99%
Percent Inhibition (HT-1197): 99%
Percent Inhibition (BT-549): 99%
Percent Inhibition (HCC1569): 99%
Percent Inhibition (NCI-H524): 98%
Percent Inhibition (Colo 205): 99%
Percent Inhibition (SW13): 99%
Percent Inhibition (CW-2): 99%
Percent Inhibition (NCI-H1770): 100%

CCOC1C2C(=O)c3c(O)c4c(c(CC=C(C)C)c3O[C@@]23[C@H]2C[C@@H]1C(=O)[C@]3(C/C=C(/C)C(=O)O)OC2(C)C)OC(C)(CCC=C(C)C)C=C4 (stereo partly drawn) [GB19]
Percent Inhibition (C3A): 99%
Percent Inhibition (A498): 99%
Percent Inhibition (NCI-H2405): 99%
Percent Inhibition (BT-474): 99%
Percent Inhibition (J82): 99%
Percent Inhibition (CCF-STTG1): 99%
Percent Inhibition (A704): 99%
Percent Inhibition (MSTO-211-H): 99%
Percent Inhibition (HEC-1-A): 99%
Percent Inhibition (M059J): 99%
Percent Inhibition (Panc 03.27): 99%
Percent Inhibition (T98G): 99%
Percent Inhibition (HCC1937): 99%
Percent Inhibition (TCCSUP): 99%
Percent Inhibition (HCC1599): 99%
Percent Inhibition (HPAF-II): 98%
Percent Inhibition (C8166): 99%
Percent Inhibition (ChaGo-K-1): 99%
Percent Inhibition (NCI-H28): 99%
Percent Inhibition (RL95): 99%
Percent Inhibition (T47D): 99%
Percent Inhibition (ZR-75-30): 99%
Percent Inhibition (Bel-7402): 99%
Percent Inhibition (NCI-H2347): 98%
Percent Inhibition (HCC1395): 99%
Percent Inhibition (NCI-H1694): 99%
Percent Inhibition (HGC-27): 99%
Percent Inhibition (NCI-H1623): 99%
Percent Inhibition (HT-1197): 99%
Percent Inhibition (BT-549): 99%
Percent Inhibition (HCC1569): 99%
Percent Inhibition (NCI-H524): 99%
Percent Inhibition (Colo 205): 99%
Percent Inhibition (SW13): 99%
Percent Inhibition (CW-2): 99%
Percent Inhibition (NCI-H1770): 99%

CC(C)=CCc1c2c(c3oc4c(O)c(O)ccc4c(=O)c3c1O)C=CC(C)(C)O2 [Compound C-6]
Percent Inhibition (C3A): 17%
Percent Inhibition (A498): 10%
Percent Inhibition (NCI-H2405): -5%
Percent Inhibition (BT-474): -18%
Percent Inhibition (J82): 13%
Percent Inhibition (CCF-STTG1): 16%
Percent Inhibition (A704): -8%
Percent Inhibition (MSTO-211-H): 1%
Percent Inhibition (HEC-1-A): 1%
Percent Inhibition (M059J): -21%
Percent Inhibition (Panc 03.27): 21%
Percent Inhibition (T98G): 11%
Percent Inhibition (HCC1937): 21%
Percent Inhibition (TCCSUP): 11%
Percent Inhibition (HCC1599): 52%
Percent Inhibition (HPAF-II): -10%
Percent Inhibition (C8166): 12%
Percent Inhibition (ChaGo-K-1): 7%
Percent Inhibition (NCI-H28): 12%
Percent Inhibition (RL95): 9%
Percent Inhibition (T47D): 6%
Percent Inhibition (ZR-75-30): 64%
Percent Inhibition (Bel-7402): 5%
Percent Inhibition (NCI-H2347): 7%
Percent Inhibition (HCC1395): 14%
Percent Inhibition (NCI-H1694): 19%
Percent Inhibition (HGC-27): 18%
Percent Inhibition (NCI-H1623): -13%
Percent Inhibition (HT-1197): 20%
Percent Inhibition (BT-549): -6%
Percent Inhibition (HCC1569): 7%
Percent Inhibition (NCI-H524): -61%
Percent Inhibition (Colo 205): 3%
Percent Inhibition (SW13): 1%
Percent Inhibition (CW-2): 5%
Percent Inhibition (NCI-H1770): 5%
